Where a SMILES comes first, the peptide text is derived from it. [ ]: non-standard residue; d: D form. The star is where a group is joined. Sta = CC(C)C[C@H](N)[C@@H](O)CC(=O)O; Isovaleryl = CC(C)CC(=O)*; Isobutyryl = CC(C)C(=O)*
Target: T1, Human renin (Homo sapiens, UniProt P00797)
T1 construct: Human plasma (lyophilized) was used as the source of human substrate and human renin; from tissue; host or cells: human plasma (lyophilized)
T1 sequence (P00797 67-406): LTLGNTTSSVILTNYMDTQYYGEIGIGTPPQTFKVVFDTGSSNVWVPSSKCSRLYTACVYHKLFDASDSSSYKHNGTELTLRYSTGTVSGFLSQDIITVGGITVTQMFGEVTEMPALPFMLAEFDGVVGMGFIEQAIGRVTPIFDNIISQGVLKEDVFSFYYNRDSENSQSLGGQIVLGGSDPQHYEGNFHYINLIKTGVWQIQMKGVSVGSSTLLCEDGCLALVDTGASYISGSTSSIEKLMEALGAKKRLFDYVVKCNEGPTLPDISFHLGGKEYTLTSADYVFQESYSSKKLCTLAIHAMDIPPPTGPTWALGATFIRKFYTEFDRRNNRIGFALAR
Assay: human renin assay, radioimmunoassay of angiotensin I in human plasma (Haber et al.)
Assay type: biochemical
Conditions: for IC50: lyophilized human plasma as source of human substrate and human renin, read-out: I50 (M) Human renin
Description: In order to illustrate the pig renin inhibition and human renin inhibition of the peptide inhibitor of Example 1, the peptide was evaluated in the pig renin inhibition assay described in Rich et al., J. Med. Chem. 23:27, 1980, and was further evaluated in the human renin assay based on the method of Haber et al., J. Clin. Endocrinol. 29:1349, 1969. The latter method employs a radioimmunoassay technique to measure the amount of angiotensin I product created by renin cleavage of its substrate. Human plasma (lyophilized) was used as the source of human substrate and human renin. I50 values were obtained by plotting data at several inhibitor concentrations.

CC[C@H](C)[C@H](NC(=O)C[C@H](O)[C@H](CC(C)C)NC(=O)[C@H](Cc1c[nH]cn1)NC(=O)[C@H](Cc1ccccc1)NC(=O)[C@@H]1CCCN1C(=O)[C@H](Cc1c[nH]cn1)NC(=O)CC(C)C)C(=O)N[C@@H](Cc1c[nH]cn1)C(N)=O [iso-Valeryl-His-Pro-Phe-His-Sta-Ile-His-NH2] (Isovaleryl-HPFH[Sta]IH-NH2)
IC50: 7.3e-09 M

CC(C)C[C@H](NC(=O)[C@H](Cc1c[nH]cn1)NC(=O)[C@H](Cc1ccccc1)NC(=O)[C@@H]1CCCN1C(=O)[C@H](Cc1c[nH]cn1)NC(=O)C(C)C)[C@@H](O)CC(=O)N[C@H](C(=O)N[C@@H](Cc1c[nH]cn1)C(=O)NCC(N)=O)C(C)C [N-Isobutyryl-L-histidyl-L-prolyl-L-phenylalanyl-L-histidyl-(3S,4S)-statyl-L-valyl-L-histidyl-L-glycyl amide] (Isobutyryl-HPFH[Sta]VHG-NH2)
IC50: 7.3e-08 M

CC(C)CC(=O)N[C@H](C(=O)N[C@H](C(=O)N[C@@H](CC(C)C)[C@@H](O)CC(=O)N[C@@H](C)C(=O)N[C@@H](CC(C)C)[C@@H](O)CC(=O)O)C(C)C)C(C)C [Pepstatin, iso-valeryl-Val--Val--Sta--Ala--Sta, reference compound] (Isovaleryl-VV[Sta]A[Sta]-OH)
inhibition at 1 µM (at 1.0 × 10^-6 M): 20%

Reference: US4470971A, “Renin inhibitory peptides having His^13” (Merck & Co., Inc., priority 1982, dated 1984)
